Results published in PubChem BioAssay AID1918932 (Molecular Pharmacology Branch, DTP, NCI, 2023).

Test system: 171881-019-R-J1-PDC complex spheroid viability
Assay: Anticancer human tumor 171881-019-R-J1-PDC patient-derived invasive breast carcinoma cell line growth inhibition
Settings: for IC50: curve of first compound; for viability, T/C: stronger effect = lower value
Outline: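 Complex spheroids of tumor cells with HUVEC and human MSCs, exposed to iadademstat combined with other agents. Each agent tested in half-log steps from near clinical Cmax (else 10 microM top), DMSO ≤0.25%.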

[1] = second compound 0.1 µM, first compound 0.0316 µM
[2] = second compound 0.1 µM, first compound 0.1 µM
[3] = second compound 0.1 µM, first compound 0.316 µM
[4] = second compound 0.1 µM, first compound 1 µM
[5] = second compound 0.1 µM, first compound 3.16 µM
[6] = second compound 0.1 µM, first compound 10 µM
[7] = second compound 0.316 µM, first compound 0.0316 µM
[8] = second compound 0.316 µM, first compound 0.1 µM
[9] = second compound 0.316 µM, first compound 0.316 µM
[10] = second compound 0.316 µM, first compound 1 µM
[11] = second compound 0.316 µM, first compound 3.16 µM
[12] = second compound 0.316 µM, first compound 10 µM
[13] = second compound 1 µM, first compound 0.0316 µM
[14] = second compound 1 µM, first compound 0.1 µM
[15] = second compound 1 µM, first compound 0.316 µM
[16] = second compound 1 µM, first compound 1 µM
[17] = second compound 1 µM, first compound 3.16 µM
[18] = second compound 1 µM, first compound 10 µM
[19] = second compound 3.16 µM, first compound 0.0316 µM
[20] = second compound 3.16 µM, first compound 0.1 µM
[21] = second compound 3.16 µM, first compound 0.316 µM
[22] = second compound 3.16 µM, first compound 1 µM
[23] = second compound 3.16 µM, first compound 3.16 µM
[24] = second compound 3.16 µM, first compound 10 µM
[25] = second compound 10 µM, first compound 0.0316 µM
[26] = second compound 10 µM, first compound 0.1 µM
[27] = second compound 10 µM, first compound 0.316 µM
[28] = second compound 10 µM, first compound 1 µM
[29] = second compound 10 µM, first compound 3.16 µM
[30] = second compound 10 µM, first compound 10 µM

| Structure (SMILES) | IC50 (second compound 0.1 µM) [nM] | IC50 (second compound 0.316 µM) [nM] | IC50 (second compound 1 µM) [nM] | IC50 (second compound 3.16 µM) [nM] | IC50 (second compound 10 µM) [nM] | viability, T/C [1] [%] | viability, T/C [2] [%] | viability, T/C [3] [%] | viability, T/C [4] [%] | viability, T/C [7] [%] | viability, T/C [8] [%] | viability, T/C [9] [%] | viability, T/C [10] [%] | viability, T/C [13] [%] | viability, T/C [14] [%] | viability, T/C [15] [%] | viability, T/C [16] [%] | viability, T/C [19] [%] | viability, T/C [20] [%] | viability, T/C [21] [%] | also measured |
| --- | --- | --- | --- | --- | --- | --- | --- | --- | --- | --- | --- | --- | --- | --- | --- | --- | --- | --- | --- | --- | --- |
| CC(C)c1c(-c2ccccc2)nc2c(C#N)c[nH]n2c1=O + NC1CCC(NC2CC2c2ccccc2)CC1 | > 10000 | > 10000 | > 10000 | > 10000 | > 10000 | 89.7 | 75.8 | 82.7 | 92.2 | 90.7 | 93.3 | 82.6 | 96.1 | 93.8 | 81.3 | 85.5 | 100 | 96.1 | 90.5 | 94.3 | viability, T/C [5]: 82.9%; viability, T/C [6]: 97.8%; viability, T/C [11]: 94%; viability, T/C [12]: 91.6%; viability, T/C [17]: 81.5%; viability, T/C [18]: 91.2%; viability, T/C [22]: 80.3%; viability, T/C [23]: 101%; viability, T/C [24]: 97.3%; viability, T/C [25]: 87.2%; viability, T/C [26]: 90.4%; viability, T/C [27]: 77.3%; viability, T/C [28]: 92.6%; viability, T/C [29]: 93.4%; viability, T/C [30]: 90.4% |
| CC1COCCN1c1cc(-c2ccnn2C)c2ccnc(-c3ccn[nH]3)c2n1 (stereo not given) + NC1CCC(NC2CC2c2ccccc2)CC1 | 10.2 | 9.5 | 10.5 | 13.6 | 13.7 | 18.8 | 8.26 | 6.58 | 5.76 | 19 | 8.72 | 6.3 | 6.44 | 24.1 | 10.6 | 6.7 | 7.53 | 25.7 | 9.54 | 7.15 | viability, T/C (second compound 0.1 µM, first compound 0.00316 µM): 57%; viability, T/C (second compound 0.1 µM, first compound 0.01 µM): 50.7%; viability, T/C (second compound 0.316 µM, first compound 0.00316 µM): 63.3%; viability, T/C (second compound 0.316 µM, first compound 0.01 µM): 49.5%; viability, T/C (second compound 1 µM, first compound 0.00316 µM): 65.3%; viability, T/C (second compound 1 µM, first compound 0.01 µM): 51.2%; viability, T/C (second compound 3.16 µM, first compound 0.00316 µM): 70.8%; viability, T/C (second compound 3.16 µM, first compound 0.01 µM): 58.9%; viability, T/C [22]: 6.61%; viability, T/C (second compound 10 µM, first compound 0.00316 µM): 70%; viability, T/C (second compound 10 µM, first compound 0.01 µM): 58.3%; viability, T/C [25]: 27.1%; viability, T/C [26]: 10.1%; viability, T/C [27]: 7.47%; viability, T/C [28]: 10.2% |
| COc1ccc([C@@H](O)c2cc(-c3ncnc4cc(N5CCOCC5)ccc34)c(F)cc2Cl)nn1 + NC1CCC(NC2CC2c2ccccc2)CC1 | 1210 | 1150 | 1060 | 1040 | 957 | 94.6 | 107 | 106 | 58.3 | 94.8 | 104 | 112 | 55.7 | 86.7 | 101 | 109 | 52.3 | 99.8 | 93.6 | 107 | viability, T/C [5]: 11.3%; viability, T/C [6]: 6.63%; viability, T/C [11]: 10.6%; viability, T/C [12]: 5.9%; viability, T/C [17]: 10.4%; viability, T/C [18]: 5.85%; viability, T/C [22]: 51.3%; viability, T/C [23]: 9.78%; viability, T/C [24]: 5.03%; viability, T/C [25]: 103%; viability, T/C [26]: 115%; viability, T/C [27]: 108%; viability, T/C [28]: 47.6%; viability, T/C [29]: 7.96%; viability, T/C [30]: 3.23% |
